Reference: patent publication US9840494B2, “Quinazoline derivative” (Tianjin Hemay Oncology Pharmaceutical Co., Ltd., priority 2013, dated 2017)
Like-named read-outs stand apart in the source and are kept apart here.

Experiment: Bioavailability assay in rats, Experiment I (dihydrochloride)
Type: in vivo
Details: Wistar rats; for half-life: read-out: T½ elimination half-life (converted)
Procedure: Experiment I. Bioavailability Assay for N-[4-(3-chloro-4-fluorophenylamino)-7-(2-methoxyethoxy)quinazolin-6-yl]-2-[1-(2-methoxyethyl)piperidin-4-ylidene]acetamide Dihydrochloride in Rats
12 Wistar rats (male, weighing 200-220 g) were purchased from Beijing Vital River Laboratory Animal Technology Co., Ltd. License No.: SCXK (Beijing) 2007-0001.
2.1 30 mg of N-[4-(3-chloro-4-fluorophenylamino)-7-(2-methoxyethoxy)quinazolin-6-yl]-2-[1-(2-methoxyethyl)piperidin-4-ylidene]acetamide dihydrochloride was weighted, and 6 ml of ultrapure water was added thereto to prepare a sample solution (5 mg/ml)) for use in intravenous administration.
2.2 30 mg of N-[4-(3-chloro-4-fluorophenylamino)-7-(2-methoxyethoxy)quinazolin-6yl]-2-[1-(2-methoxyethyl)piperidin-4-ylidene]acetamide dihydrochloride was weighted, and 12 ml of ultrapure water was added thereto to prepare a sample solution (2.5 mg/ml)) for use in intragastric administration.
4.1.1 HPLC Conditions: chromatographic column: octadecyl-bonded silica gel as filler (4.6 mm×50 mm, 1.8 μm), Agilent; mobile phase: methanol: 5 mM ammonium acetate (PH4.0) (60: 40); flow rate: 1 ml/min; column temperature: 40° C.
Ion: 544.3→457.1 (N-[4-(3-chloro-4-fluorophenylamino)-7-(2-methoxyethoxy)quinazolin-6-yl]-2-[1-(2-methoxyethyl)piperidin-4-ylidene]acetamide dihydrochloride)
Dwell Time: 80; fragment voltage: 180; collision energy: 25;
1 mg of N-[4-(3-chloro-4-fluorophenylamino)-7-(2-methoxyethoxy)quinazolin-6-yl]-2-[1-(2-methoxyethyl)piperidin-4-ylidene]acetamide dihydrochloride was weighted and formulated into a solution in methanol (1 mg/ml)). The solution was then diluted stepwise into standard solutions of 50 ng/ml, 100 ng/ml, 200 ng/ml, 500 ng/ml, 1 μg/ml, 2 μg/ml, 5 μg/ml, 10 μg/ml, 20 μg/ml, 50 μg/ml, and 100 μg/ml. 10 μl of the standard solutions were separately pipetted into centrifuge tubes (1.5 ml). 10 μl of internal standard (1 μg/ml Lipitor solution in methanol) was added thereto. 100 μl of rat plasma was then added thereto. The mixture was vortexed. Then 200 μl of acetonitrile was added to precipitate protein, then vortexed for 1 min and centrifuged at 16000 r/min for 8 min 10 μl of the supernatant was directly injected for measurement.
12 rats were randomly divided into two groups, i.e. six rats per group. These rats were fasted and ad libitum accessed to water for 12 hours before administration. Blank blood (about 0.5 ml) of each rat was withdrawn, and then N-[4-(3-chloro-4-fluorophenylamino)-7-(2-methoxyethoxy)quinazolin-6-yl]-2-[1-(2-methoxyethyl)piperidin-4-ylidene]acetamide dihydrochloride (20 mg/kg) was administrated via intragastric gavage and tail intravenous injection, respectively. Blood (about 0.5 ml) was withdrawn from the orbital venous plexus at different time points after the administration (blood collection points for tail intravenous administration were: 5 min, 15 min, 0.5 h, 1 h, 2 h, 3 h, 4 h, 6 h, 8 h, 12 h, 18 h, 24 h, 30 h; and blood collection time-points for intragastric administration were: 5 min, 10 min, 20 min, 30 min, 45 min, 1 h, 2 h, 3 h, 4 h, 6 h, 8 h, 12 h, 18 h, 24 h, 30 h). The blood was drawn into a heparinized centrifuge tube and centrifuged at 8000 r/min for 10 min 100 μl of the plasma was pipetted into a centrifuge tube (1.5 ml), and 10 μl of internal standard (1 μg/ml atorvastatin hemi-calcium salt solution in methanol) was added thereto. The resulting mixture was vortexed. Then 200 μl of acetonitrile was added to precipitate protein, vortexed for 1 min and centrifuged at 16000 r/min for 8 min The supernatant was recovered, and 10 μl of the supernatant was directly injected for detection.
5.1 A standard curve with the natural logarithm of the sample concentration as abscissa and the natural logarithm of the peak area ratio of the sample to the internal standard as ordinate was established as: y=1.008x−4.149; R2=0.998
Method for the calculation of bioavailability: F=(AUCig×Div)/(AUCiv×Dig)×100% […]

[1] = male, rat, plasma, oral, 20 mg/kg ig, read-out: Average Plasma Drug Concentration
[2] = male, rat, plasma, po, 20 mg/kg ig
[3] = male, rat, plasma, 20 mg/kg iv, read-out: Average Plasma Drug Concentration

With `COCCOc1cc2ncnc(Nc3ccc(F)c(Cl)c3)c2cc1NC(=O)C=C1CCN(CCOC)CC1.Cl.Cl` [Compound 2, N-[4-(3-chloro-4-fluorophenylamino)-7-(2-methoxyethoxy)quinazolin-6yl]-2-[1-(2-methoxyethyl)piperidin-4-ylidene]acetamide dihydrochloride] the “K (elimination rate constant)” value (20 mg/kg iv) was 0.14, the bioavailability (male, rat, plasma, oral, 20 mg/kg ig vs 20 mg/kg iv) was 56.9% and the concentration at 0.167 h (male, rat, plasma, oral, 20 mg/kg ig, 0.167 h, read-out: Average Plasma Drug Concentration) was 39.4 ng/mL. For the same compound, the concentration at 0.33 h (male, rat, plasma, oral, 20 mg/kg ig, 0.33 h, read-out: Average Plasma Drug Concentration) was 145 ng/mL, the concentration at 0.5 h [1] was 202 ng/mL and the concentration at 0.75 h (male, rat, plasma, oral, 20 mg/kg ig, 0.75 h, read-out: Average Plasma Drug Concentration) was 285 ng/mL. For the same compound, the concentration at 1 h [1] was 342 ng/mL, the concentration at 2 h [1] was 342 ng/mL and the concentration at 3 h [1] was 406 ng/mL. For the same compound, the concentration at 4 h [1] was 468 ng/mL, the concentration at 6 h [1] was 536 ng/mL and the concentration at 8 h [1] was 495 ng/mL. The concentration at 12 h [1] was 330 ng/mL, the concentration at 18 h [1] was 139 ng/mL and the concentration at 24 h [1] was 72.4 ng/mL. The concentration at 30 h [1] was 22.7 ng/mL, the concentration at 0.083 h (male, rat, plasma, oral, 20 mg/kg intragastric gavage (ig), read-out: Average Plasma Drug Concentration) was 17.1 ng/mL and the AUC [2] was 7350 ng·h/mL. The half-life [2] was 4.73 h, the AUC (male, rat, plasma, 20 mg/kg iv) was 12900 ng·h/mL and the concentration at 0.25 h (male, rat, plasma, 20 mg/kg iv, 0.25 h, read-out: Average Plasma Drug Concentration) was 3240 ng/mL. The concentration at 0.5 h [3] was 2700 ng/mL, the concentration at 1 h [3] was 1720 ng/mL and the concentration at 2 h [3] was 1330 ng/mL. It also gave a concentration at 3 h [3] of 989 ng/mL, a concentration at 4 h [3] of 748 ng/mL and a concentration at 6 h [3] of 557 ng/mL. For the same compound, the concentration at 8 h [3] was 547 ng/mL, the concentration at 12 h [3] was 325 ng/mL and the concentration at 18 h [3] was 181 ng/mL. It also gave a concentration at 24 h [3] of 80.8 ng/mL, a concentration at 30 h [3] of 29.6 ng/mL and a half-life (male, rat, plasma, 20 mg/kg iv) of 5.18 h. For the same compound, the concentration at 0.083 h (male, rat, plasma, 20 mg/kg tail intravenous injection (iv), read-out: Average Plasma Drug Concentration) was 4850 ng/mL.
